Literature values in patent US9661851B1, “Synergistic herbicidal composition and use thereof” (ROTAM AGROCHEM INTERNATIONAL COMPANY LIMITED, priority 2015, dated 2017).

Conditions: hydrolysis in water, storage with moisture, in formulations; stated with reference to U.S. Ser. No. 14/957,768

Row | Structure (SMILES) | stability
1 | COC(=O)c1ccc(CNS(C)(=O)=O)c(S(=O)(=O)NC(=O)Nc2nc(OC)cc(OC)n2)c1 [mesosulfuron-methyl in the amorphous state] [methyl 2-[(4,6-dimethoxypyrimidin-2-ylcarbamoyl)sulfamoyl]-α-(methanesulfonamido)-p-toluate] | highly unstable
2 | COC(=O)c1ccc(CNS(C)(=O)=O)c(S(=O)(=O)NC(=O)Nc2nc(OC)cc(OC)n2)c1 [crystalline modification I of mesosulfuron-methyl] [methyl 2-[(4,6-dimethoxypyrimidin-2-ylcarbamoyl)sulfamoyl]-α-(methanesulfonamido)-p-toluate] | improved stability
